{
  "source": "patent US11993640B2",
  "about": "“Treating inflammatory lung disease” (United States Government as represented by the Department …, priority 2019, dated 2024)",
  "key": {"HCC1806 cells": {"system": "HCC1806 cells", "assay": "In vitro cell viability, breast cancer HCC1806", "assay_type": "cell-based, human", "conditions": "5 μM, 72 h", "method": "(§1) The inhibitory effects of the various synthesized GHRH antagonists were tested in cell proliferation assays in various human cancer cell lines including stomach cancer (KATOIII, N87), colon cancer (HT-29), urothelial cancer (J82, RT4), pancreatic cancer (PANC-1, CFPAC-1), prostatic cancer (PC3), breast cancer (MX-1, HCC1806), ovarian cancer (SK-OV-3, OVCAR-3) and lung cancer (HCC827, H460).\n(§2) Cell culture. Human cancer cell lines including pancreatic (PANC-1 and CFPAC-1), lung (HCC827 and H460), stomach (NCI-N87 and KATOIII), urothelial (J82, RT4), prostatic (PC3), breast (MX-1 and HCC 1806), colorectal (HT-29), and ovarian (SK-OV-3 and OVCAR-3) were obtained from the American Type Culture Collection (ATCC) and cultured at 37° C. in a humidified 95% air/5% CO2 atmosphere in the medium recommended by ATCC.\n(§3) In vitro cell viability. Cell viability was analyzed as follows: cancer cells including pancreatic (PANC-1 and CFPAC-1), lung (HCC827 and H460), stomach (NCI-N87 and KATOIII), urothelial (J82, RT4), prostatic (PC3) and breast (MX-1 and HCC 1806), colorectal (HT-29) and ovarian (SK-OV-3 and OVCAR-3) were grown on 96 well plates to ˜60% confluence, the cells were starved for 24 h in culture medium containing 0.5% FBS. Cells were then treated with GHRH antagonists MIA602 AVR compounds at concentrations of 1, 2.5 or 5 μM, or vehicle (0.1% DMSO) in quintuplicates for 72 hours. The medium was replaced every 48 hours. Cell viability was measured using CellTiter 96 aqueous one solution kit (Promega). Inhibitory effects of tested AVR compounds in comparison to that of MIA602 are presented as inhibitory potency.\n(§4) Inhibitory effects of selected AVR compounds in comparison to that of MIA602 are presented as inhibitory potency (e.g., percentage of inhibition). […] The cell lines tested including lung cancer HCC827 (FIG. 2A), pancreatic cancer CFPAC-1 (FIG. 2B), stomach cancer N87 (FIG. 2C), colon cancer HT-29 (FIG. 2D), breast cancers MX-1 and HCC1806 (FIGS. 2E, F). Based on the results of cell proliferation assay after cancer cells were treated with antagonist at concentration of 5 μM for 72H, the relative inhibitory potency of AVR antagonists in comparison to MIA-602 is summarized in Table 3 A and B. Over 60 AVR compounds were tested in 12 cancer cell lines.\n(§5) Based on the results of cell proliferation assay after cancer cells were treated with antagonist at concentration of 5 µM for 72H, * at concentration of 2 µM for 72 H."}, "MX-1 cells": {"system": "MX-1 cells", "assay": "In vitro cell viability, breast cancer MX-1", "assay_type": "cell-based, human", "conditions": "5 μM, 72 h", "method": "as §1, §2, §3, §4, §5"}, "HCC827 xenograft": {"system": "HCC827 xenograft", "assay": "Xenograft tumor growth in nude mice, lung cancer HCC827", "assay_type": "in vivo", "conditions": "Panel C, 8 weeks, 5 μg/day s.c.", "method": "(§6) The peptides' activity was compared with GHRH antagonist MIA-602. All statistical analyzses were performed from comparing GHRA antagonists to non-treated tumor (control).\n(§7) Peptides and chemicals. GHRH antagonists MIA-602 and AVR-GHRH antagonists (see Table 2 above) were synthesized by solid phase methods and purified by HPLC. The peptides were dissolved in DMSO and further diluted in 10% 1, 2-propanediol. The final concentration of peptides was 50 µg/ml in 10% 1, 2-propanediol containing 0.1% of DMSO.\nas §2, with “(NCI-N87), prostate” for “(NCI-N87 and KATOIII), urothelial (J82, RT4), prostatic”, “brest” for “breast”, “HCC-1806),” for “HCC 1806),”\n(§8) Xenograft models of human cancers in nude mice. Female athymic (NCr nu/nu) nude mice, 5-to 6-weeks-old, obtained from the Envigo labs (Tampa, FL), were housed in laminar airflow cabinets under pathogen-free conditions with a 12-h light/12-h dark schedule, and were fed autoclaved standard chow and water. To generate mice with xenografted tumors, tumor xenografts were initiated by subcutaneous (s.c.) injection of […] human cancer cells into female nude mice. After about 4 weeks the resulting tumors were dissected and collected after removing necrosis tissues. The tumors were then cut into particles with size of ˜3 mm3 and transplanted s.c. by trocar needle into experimental animals. When tumors grew to the size of 50-60 mm3 (by volume), mice were randomized into groups and treated daily for 4-8 weeks by subcutaneous administration of 5 μg of GHRH antagonists MIA-602 or AVR-compounds (2-10 μg as indicated), or vehicle solutions (0.1% DMSO in 10% 1, 2-propanediol) respectively. Tumor sizes were measured weekly.\n(§9) Statistical analysis. One-way ANOVA followed by Bonferroni comparison were performed. Data are expressed as Mean±SEM. To determine statistical significance between animal groups, two-tailed Student's t-test was conducted. Differences were considered significant when p<0.05.\n(§10) Results. […] FIG. 1A-N represents in vivo inhibition of tumor growth during the treatment with GHRH antagonist MIA-602 and selected AVR antagonists in nude mice xenografted with various human tumors including pancreatic cancer PANC-1 (FIG. 1A) and CFPAC-1 (FIG. 1I); lung cancer HCC827 (FIGS. 1B, C) and H460 (FIG. 1H); stomach cancer N87 (FIGS. 1D-F); colon cancer HT-29 (FIG. 1G); breast cancer MX-1 and HCC-1806 (FIGS. 1J, K); ovarian cancer SK-OV-3 and OVACAR-3 (FIGS. 1L, M) and prostate cancer PC3 (FIG. 1N). See also Table 5."}, "HT-29 xenograft": {"system": "HT-29 xenograft", "assay": "Xenograft tumor growth in nude mice, colon cancer HT-29", "assay_type": "in vivo", "conditions": "Panel G, 6 weeks, 5 μg/day s.c.", "method": "as §6, §7\nas §2, with “(NCI-N87), prostate” for “(NCI-N87 and KATOIII), urothelial (J82, RT4), prostatic”, “brest” for “breast”, “HCC-1806),” for “HCC 1806),”\nas §8, §9, §10"}, "SK-OV-3 xenograft": {"system": "SK-OV-3 xenograft", "assay": "Xenograft tumor growth in nude mice, ovarian cancer SK-OV-3", "assay_type": "in vivo", "conditions": "Panel L, 7 weeks, 5 μg/day s.c.", "method": "as §6, §7\nas §2, with “(NCI-N87), prostate” for “(NCI-N87 and KATOIII), urothelial (J82, RT4), prostatic”, “brest” for “breast”, “HCC-1806),” for “HCC 1806),”\nas §8, §9, §10"}, "OVCAR-3 xenograft": {"system": "OVCAR-3 xenograft", "assay": "Xenograft tumor growth in nude mice, ovarian cancer OVCAR-3", "assay_type": "in vivo", "conditions": "Panel M, 9 weeks, 5 μg/day s.c.", "method": "as §6, §7\nas §2, with “(NCI-N87), prostate” for “(NCI-N87 and KATOIII), urothelial (J82, RT4), prostatic”, “brest” for “breast”, “HCC-1806),” for “HCC 1806),”\nas §8\nStatistical analysis. One-way ANOVA followed by Bonferroni comparison were performed. Data are expressed as Mean±SEM. […]"}, "[1]": {"conditions": "relative to MIA602 = 1, Table 3A"}},
  "note": "Non-standard residues stand in square brackets, D forms with d. Residues, ends and D or L forms follow the SMILES beside them. *: point of attachment. Phe(F5) = N[C@@H](Cc1c(F)c(F)c(F)c(F)c1F)C(=O)O; hArg = N=C(N)NCCCC[C@H](N)C(=O)O; 12Ado = NCCCCCCCCCCCC(=O)O; Nle = CCCC[C@H](N)C(=O)O; Orn = NCCC[C@H](N)C(=O)O; Abu = CC[C@H](N)C(=O)O; PhAc = O=C(Cc1ccccc1)*",
  "data": [
    {"smiles": "CCCC[C@H](NC(=O)[C@@H](NC(=O)[C@H](CC(=O)O)NC(=O)[C@H](CCC(N)=O)NC(=O)[C@H](CC(C)C)NC(=O)[C@H](CC(C)C)NC(=O)[C@H](CCCN)NC(=O)[C@H](Cc1c[nH]cn1)NC(=O)[C@H](C)NC(=O)[C@H](CO)NC(=O)[C@H](CC(C)C)NC(=O)[C@H](CCC(N)=O)NC(=O)[C@H](CC)NC(=O)[C@H](CC(C)C)NC(=O)[C@@H](NC(=O)[C@H](CCCN)NC(=O)[C@H](Cc1c[nH]cn1)NC(=O)[C@H](Cc1ccc(OC)cc1)NC(=O)[C@H](CCCCNC(=N)N)NC(=O)[C@H](C)NC(=O)[C@@H](NC(=O)[C@H](Cc1c(F)c(F)c(F)c(F)c1F)NC(=O)[C@@H](NC(=O)[C@H](C)NC(=O)[C@H](CC(=O)O)NC(=O)[C@@H](CCCNC(=N)N)NC(=O)[C@H](Cc1ccc(O)cc1)NC(=O)CCCCCCCCCCCNC(=O)Cc1ccccc1)[C@@H](C)CC)[C@@H](C)O)C(C)C)[C@@H](C)CC)C(=O)N[C@H](CCCNC(=N)N)C(=O)N[C@@H](CCCCNC(=N)N)C(N)=O", "note": "[MIA-602, PhAC-Ada, Tyr D-Arg, Asp, Ala, Ile, 5FPhe, Thr, Ala, Har, Tyr(Me), His, Orn, Val, Leu, Abu, Gin, Leu, Ser, Ala, His, Orn, Leu, Leu, Gin, Asp, Ile, Nle, D-Arg, Har NH2, reference compound] ({PhAc-12Ado}-Y[dR]DAI[Phe(F5)]TA[hArg]Y(Me)H[Orn]VL[Abu]QLSAH[Orn]LLQDI[Nle][dR][hArg]-NH2)", "values": [
      {"measurement": "In vitro relative inhibitory potency in comparison to MIA-602, HCC-1806", "setting": "HCC1806 cells; Table 3B", "result": 1},
      {"measurement": "Relative inhibitory potency, Breast HCC1806", "setting": "HCC1806 cells; [1]", "result": 1},
      {"measurement": "In vitro relative inhibitory potency in comparison to MIA-602, MX-1", "setting": "MX-1 cells; Table 3B", "result": 1},
      {"measurement": "Relative inhibitory potency, Breast MX-1", "setting": "MX-1 cells; [1]", "result": 1},
      {"measurement": "Tumor Growth %", "setting": "HCC827 xenograft", "result": 523.03, "unit": "%"},
      {"measurement": "% Inhibition", "setting": "HCC827 xenograft; vs control", "result": 37.8, "unit": "%"},
      {"measurement": "Tumor Growth %", "setting": "HT-29 xenograft", "result": 582.10, "unit": "%"},
      {"measurement": "Tumor Growth %", "setting": "SK-OV-3 xenograft", "result": 810.1, "unit": "%"},
      {"measurement": "% Inhibition", "setting": "SK-OV-3 xenograft; vs control", "result": 38.0, "unit": "%"},
      {"measurement": "Tumor Growth %", "setting": "OVCAR-3 xenograft", "result": 267.2, "unit": "%"}
    ]}
  ]
}
